In BindingDB's records for doi:10.1021/jm800052b (Genentech, 2008):
pIC50: −log10 of the molar value.

Tests used:
Aurora kinase A = target: T1, Aurora kinase A (Homo sapiens, UniProt O14965); assay: Enzyme Inhibition Assay; details: pH 7.5; 22 °C
T1 sequence (O14965 whole entry): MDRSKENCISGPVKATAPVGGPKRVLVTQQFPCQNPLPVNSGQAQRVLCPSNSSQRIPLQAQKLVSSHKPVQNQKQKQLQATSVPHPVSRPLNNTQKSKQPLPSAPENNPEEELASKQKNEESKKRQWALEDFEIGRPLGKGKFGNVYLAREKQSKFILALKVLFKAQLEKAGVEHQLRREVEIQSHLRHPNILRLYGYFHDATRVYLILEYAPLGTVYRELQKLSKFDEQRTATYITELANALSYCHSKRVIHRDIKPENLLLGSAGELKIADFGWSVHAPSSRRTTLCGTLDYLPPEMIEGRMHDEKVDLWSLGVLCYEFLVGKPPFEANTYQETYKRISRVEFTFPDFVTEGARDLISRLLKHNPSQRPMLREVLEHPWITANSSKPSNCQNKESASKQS
Description: (§1) Aurora kinase was assayed in ELISA format using a GST fusion of the N-terminus of Histone H3 as substrate. Plates were coated with substrate, and then blocked with I-block (Tropix) in PBS. After kinase reaction, product was detected by incubation with antiphosphohistone H3 (Ser10) 6G3 mouse monoclonal antibody and sheep-antimouse HRP conjugate, followed by washing and addition of TMB substrate.

Aurora kinase B = Aurora kinase B (Homo sapiens, UniProt Q96GD4); assay: Enzyme Inhibition Assay; details: pH 7.5; 22 °C
Description: as §1

Aurora kinase B, sequence (Q96GD4 whole entry): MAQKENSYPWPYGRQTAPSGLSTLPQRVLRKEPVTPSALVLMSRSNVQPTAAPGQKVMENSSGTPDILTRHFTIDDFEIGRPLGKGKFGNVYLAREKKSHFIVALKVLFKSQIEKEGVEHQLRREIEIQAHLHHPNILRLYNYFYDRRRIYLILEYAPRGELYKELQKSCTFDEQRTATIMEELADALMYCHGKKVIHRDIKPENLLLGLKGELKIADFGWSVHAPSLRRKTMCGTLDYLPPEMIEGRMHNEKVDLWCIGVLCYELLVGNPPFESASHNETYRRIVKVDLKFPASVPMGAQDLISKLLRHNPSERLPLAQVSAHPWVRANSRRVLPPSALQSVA

SMILES | pIC50 (Aurora kinase A) | pIC50 (Aurora kinase B)
Cc1[nH]nc2c1CCCc1c-2[nH]c2ccccc12 [5-methyl-3,4,17-triazatetracyclo[8.7.0.0^{2,6}.0^{11,16}]heptadeca-1(10),2,5,11,13,15-hexaene] | 7.38 | 7.66
Cc1[nH]nc2c1CCCc1c-2[nH]c2cc3c(cc12)NC(=O)C3(C)C [7,7,16-trimethyl-5,11,14,15-tetraazapentacyclo[10.8.0.0^{2,10}.0^{4,8}.0^{13,17}]icosa-1(12),2,4(8),9,13,16-hexaen-6-one] |  | > 8.70
